Entries after “also recorded” stand apart in the source; their conditions may differ.
Experiments:
human sperm = assay: Modified Kremer-Test, cervical mucus penetration (Experiment B); type: cell-based; settings: treated at MEC; 30 minutes at 37 degree C
Text: A modified Kremer-Test was used for assessment of cervical mucus penetrating capacity of treated sperm. A drop of human mid-cycle cervical mucus was placed on a slide and flattened by a cover slip (22 mm×22 mm). A drop of human sperm suspension treated with the test compounds (at MEC) was deposited at the side of the cover slip and in contact with the edge, the sperm suspension moved in under the cover slip by capillary force and a clear interface was obtained between the sperm suspension and the cervical mucus. The slide preparation was placed within a CO2 incubator at 37 degree C. for 30 minutes. Suitable control sets were prepared side by side. Each preparation was examined under a phase contrast microscope to observe the entry of spermatozoa into the cervical mucus zone.

rat spermatozoa [1] = assay: Hypo-osmotic swelling (HOS) test; type: cell-based
Protocol: A hypotonic solution was prepared by dissolving 0.735 g sodium citrate dehydrate and 1.351 g fructose in 100 ml distilled water (Milli Q). Aliquots of this solution kept frozen in −20 degree C. and thawed before use. For the test, 200 microliters of working suspension of rat spermatozoa was treated with one ml of Ac-B solution (at MEC) or BWW (as control) for 20 seconds followed by washing with BWW medium and centrifugation at 1000 rpm for 5 min. Finally the sperm pellet was resuspended in 0.1 ml BWW medium. One ml of prewarmed (37 degree C.) HOS solution was added to the suspension and incubated for one hour at 37 degree C. The incubated sperms were examined under a phase contrast microscope at ×400 magnification to observe the curling of tails. Two hundred spermatozoa were examined for each sample.

rat spermatozoa [2] = assay: Sander & Cramer spermicidal assay (in vitro); type: cell-based
Protocol: (§1) Sexually mature male mice and rats were autopsied following euthanasia by an overdose of Ketamin (≧200 mg/kg body weight; injected i.p.) and their cauda epididymis were excised. Working suspension of animal spermatozoa was prepared with the exudates obtained after careful pricking of the cauda epididymis with an injection needle (18 G) and the exudates were collected in a conical centrifuge tube.
(§2) The exudates/liquefied human semen samples were suspended in BWW medium (pre equilibrated at 37 degree C.). The spermatozoa with forward motility were separated from immotile or sluggishly motile cells by the swim-up technique and were allowed to disperse evenly within a CO2 incubator at 37 degree C. At least five aliquots from each sample was used to prepare the working spermatozoa suspension. The swim up procedure was as follows:
(§3) Pre equilibrated BWW medium (1.25 ml) was gently layered over cauda-exudates or liquefied human semen (1 ml) in a sterile 15 ml conical-based centrifuge tube. The tube was inclined at an angle of 45 degree and incubated for 1 hour at 37 degree C. in a CO2-incubator. It was then gently returned to the upright position and the uppermost 1 ml medium with a turbid appearance was removed. This aliquot of motile cells was pooled from each set, then diluted with same volumes of pre equilibrated BWW medium, centrifuged at 500 g for 5 minutes and finally resuspended in 1 ml pre equilibrated BWW medium to obtain a working suspension. The sperm cells were counted in a Makler chamber (Zygotec Systems, Springfield, M A, USA) and finally a working spermatozoa suspension having concentration of 25 to 30×10^6 cells/ml was prepared.
(§4) For in vitro assay of spermicidal effect, sperms collected from proven male rats and mice, and motile spermatozoa from liquefied human semen were used.
(§5) The assay was done following the Sander & Cramer assay method. Two hundred micro liter (200 microliters) of working spermatozoa suspension was added to 1 ml solution of test material in BWW medium and mixed on a light vortex for 10 seconds. A wet mount was immediately prepared on a clean microscopy glass slide and examined (at ×100) under a phase contrast microscope (Leitz, Biomed). The weakest concentration that immobilized all spermatozoa within 20 seconds of mixing was recorded as MEC. At least five fields were examined for each wet mount preparation. The observation was repeated with five individual spermatozoa suspension for each concentration of test compound solution. For negative control, saponin solutions were replaced by equal volume of BWW medium, while Nonoxynol 9 was used as positive control.

mouse spermatozoa = assay: Sander & Cramer spermicidal assay (in vitro); type: cell-based
Protocol: as §1, §2, §3, §4, §5

HIV = assay: Inactivation of HIV in vitro (summary statements); type: cell-based
Protocol: Human CD4+ T cell line CEM-GFP cells were infected with HIV-1 NL-4.3 virus pretreated without or with Ac-B at varying concentrations (1 hour at 37 degree C.) at a multiplicity of infection (MOI) of 0.01. The cells were then cultured in the presence or absence of Ac-B for up to 7 days post infection. Virus production was analyzed in the culture supernatant on day-7 post infection by p24 antigen capture ELISA
P4 (Hela-CD4-LTR-β Gal) cells were infected with 0.05 MOI of NL4.3 virus pretreated without or with Ac-B at varying concentrations (1 hour at 37 degree C.) followed by incubation for 48 hours in the presence or absence of Ac-B at a concentration of 0.5 to 2.5 microgram per ml. Virus production was analyzed by ELISA of p24 antigen in the culture supernatant. Viral transmission in the transfected cells was evaluated by X-gal staining, in which an antiretroviral therapeutic drug, Azidothymidine (AZT) was used as positive control.

female rabbits = assay: Contraceptive efficacy following intravaginal application in rabbits; type: in vivo, New Zealand Rabbits; settings: intra-vaginal
Protocol: Healthy virgin, nulliparous female rabbits were primed with PMSG (200 i.u.; i.p.; 96 hrs prior to testing) to induce ovulation. Serial dilutions (2.5 mg/ml, 10 mg/ml, 25 mg/ml and 50 mg/ml) of Ac-B in KY-jelly was prepared to be used as test solutions and only KY-jelly was used for control group. Two ml of test/control solution was introduced 6-8 cm deep into the vagina of each rabbit with by the syringe with gavaging needle. The animal was held in supine position for about five minutes and then hand-mated by the selected proven bucks. The buck was allowed one-time mating. To ensure ovulation 100 i.u. of hCG was administered through the marginal ear vein of each participating doe. The vaginal lavage of the mated doe was examined under a microscope. The presence of spermatozoa in the lavage was considered as confirmed mating. The mated does were kept in separate cages to complete their gestation period and the number of delivered pups was recorded. The mean value of the pups was calculated to determine the contraceptive potential.

## Acaciaside-B [Ac-B]
Human sperm
  Entry of treated spermatozoa into human cervical mucus: none of them crossed into the interface
Rat spermatozoa [1]; Ac-B at MEC for 20 seconds, 1 hour in HOS solution at 37 degree C
  Response to HOS (HOS+), Hypo-osmotic Swelling Test: 0% (HOS+)
Rat spermatozoa [1]; Ac-B treated
  HOS reactivity (curling of tails) of treated spermatozoa: no HOS reactivity; also recorded: absence of curling
Rat spermatozoa [2]; Rat spermatozoa (N = 10), all immobilized within 20 seconds
  MEC as per Sander and Cramer Test: 60 (±2) microgram per ml
Rat spermatozoa [2]; rats
  MEC, Sander-Cramer test: 60 µg/mL
Mouse spermatozoa; Mouse spermatozoa (N = 10), all immobilized within 20 seconds
  MEC as per Sander and Cramer Test: 60 (±2) microgram per ml
Mouse spermatozoa; mice
  MEC, Sander-Cramer test: 60 µg/mL
HIV
  Dose level preventing HIV infection in vitro: greater than or equal to 1.0 microgram per ml
Female rabbits; 2 ml of 2.5 mg/ml Acaciaside-B in K-Y jelly (n = 5)
  Mean numbers of pups delivered: 3.4
Female rabbits; 2 ml of 10 mg/ml Acaciaside-B in K-Y jelly (n = 5)
  Mean numbers of pups delivered: 2.2
Female rabbits; 2 ml of 25 mg/ml Acaciaside-B in K-Y jelly (n = 5)
  Mean numbers of pups delivered: 0.2
Female rabbits; 2 ml of 50 mg/ml Acaciaside-B in K-Y jelly (n = 5)
  Mean numbers of pups delivered: 0.0
